Measured values from patent US20260248787A9, “MEDICAMENT FOR TREATING CANCER COMPRISING OPTICALLY ACTIVE AZABICYCLO RING DERIVATIVE” (Sumitomo Pharma Co., Ltd., priority 2023, published 2026).
Like-named read-outs stand apart in the source and are kept apart here.

Experiment: Phase 1/2 clinical study, plasma pharmacokinetic evaluation
Type: in vivo, human
Conditions: for time of maximum concentration: after dosing; for AUC(0-t) / Cmax / Tmax / half-life: human, plasma, oral; for half-life: read-out: t1/2 (converted)
Experimental: In the present test of the present compound, PK samples have been collected in up to 24 patients dosed in dose groups of 40, 80, 100, and 120 mg BID Arm A, and in dose groups of 40 and 60 mg BID Arm B (Table 6). Large preliminary PK inter-patient variability was observed.
(1) In the present study, PK samples have been collected in up to 42 patients dosed in dose groups of 40, 80, 100, 120, 140 and 200 mg BID Arm A, and in dose groups of 40, 60, 100, and 200 mg BID Arm B (Table 15).
(2) In the present study, PK samples have been collected in patients dosed in dose groups of 40, 80, 100, 120, 140, 200, and 300 mg BID Arm A, and in dose groups of 40, 60, 100, 200, and 300 mg BID Arm B (Table 16).

[1] = 40 mg, 40 mg BID Arm A, C1D1, N=2, mean
[2] = 40 mg, 40 mg BID Arm A, C2D1, N=1
[3] = 40 mg, 40 mg BID Arm B, C1D1, N=4, mean
[4] = 40 mg, 40 mg BID Arm B, C2D1, N=2, mean
[5] = 40 mg, Cycle 1 Day 1, 40 mg BID Arm A (without azole), N=2, mean
[6] = 40 mg, Cycle 1 Day 1, 40 mg BID Arm B (with azole), N=4, mean
[7] = 40 mg, Cycle 2 Day 1, 40 mg BID Arm A (without azole), N=1
[8] = 40 mg, Cycle 2 Day 1, 40 mg BID Arm B (with azole), N=2, mean
[9] = 40 mg, Table 15 cut-off, 40 mg BID Arm A, Cycle 1 Day 1, N=2, mean
[10] = 40 mg, Table 15 cut-off, 40 mg BID Arm A, Cycle 2 Day 1, N=1
[11] = 40 mg, Table 15 cut-off, 40 mg BID Arm B, Cycle 1 Day 1, N=4, mean
[12] = 40 mg, Table 15 cut-off, 40 mg BID Arm B, Cycle 2 Day 1, N=2, mean
[13] = 60 mg, 60 mg BID Arm B, C1D1, N=6, mean
[14] = 60 mg, 60 mg BID Arm B, C2D1, N=4, mean
[15] = 60 mg, Cycle 1 Day 1, 60 mg BID Arm B (with azole), N=6, mean
[16] = 60 mg, Cycle 2 Day 1, 60 mg BID Arm B (with azole), N=4, mean
[17] = 60 mg, Table 15 cut-off, 60 mg BID Arm B, Cycle 1 Day 1, N=6, mean
[18] = 60 mg, Table 15 cut-off, 60 mg BID Arm B, Cycle 2 Day 1, N=4, mean
[19] = 80 mg, 80 mg BID Arm A, C1D1, N=4, mean
[20] = 80 mg, 80 mg BID Arm A, C2D1, N=2, mean
[21] = 80 mg, Cycle 1 Day 1, 80 mg BID Arm A (without azole), N=4, mean
[22] = 80 mg, Cycle 2 Day 1, 80 mg BID Arm A (without azole), N=2, mean
[23] = 80 mg, Table 15 cut-off, 80 mg BID Arm A, Cycle 1 Day 1, N=4, mean
[24] = 80 mg, Table 15 cut-off, 80 mg BID Arm A, Cycle 2 Day 1, N=2, mean
[25] = 100 mg, 100 mg BID Arm A, C1D1, N=2, mean

C=C1C[C@@H]2CC[C@H]1[C@@H](C(=O)N1CCC3(CC1)CN(c1ncncc1Oc1ccc(F)cc1C(=O)N(C(C)C)C(C)C)C3)N2 [the present compound, 5-fluoro-2-[(4-{7-[(1S,3S,4R)-5-methylidene-2-azabicyclo[2.2.2]octane-3-carbonyl]-2,7-diazaspiro[3.5]nonan-2-yl}pyrimidin-5-yl)oxy]-N,N-di(propan-2-yl)benzamide]
drug accumulation with repeat dosing (40-200 mg BID cut-off): minimal drug accumulation
effect of azoles on the exposure (40-200 mg BID cut-off): do not have a large effect
exposure versus dose (40-200 mg BID cut-off): Dose-dependent increases in exposures
drug accumulation with repeat dosing (40-300 mg BID cut-off): minimal drug accumulation
effect of azoles on the exposure (40-300 mg BID cut-off): do not have a large effect
exposure versus dose (40-300 mg BID cut-off): Dose-dependent increases in exposures
exposure versus dose (Arm A, 40, 80, 100, 120 mg BID): a trend of dose-related increased in exposures
impact of azoles on the exposure (Arm B compared with Arm A, first cut-off): do not have a large or dramatic impact
drug accumulation with repeat dosing (Cycle 2 Day 1 vs Cycle 1 Day 1, first cut-off): minimal to no drug accumulation
accumulation with repeat dosing (FIGS. 4A to 4D cut-off): minimal accumulation
large drug-drug interaction (>~2-fold) with azoles (FIGS. 4A to 4D cut-off): has not identified
time of maximum concentration (40-200 mg BID cut-off): ≤ 2 h
time of maximum concentration (40-300 mg BID cut-off): ≤ 2 h
exposure versus dose (doses ≥140 mg BID, FIGS. 4A to 4D cut-off): Dose-related increases in exposures
AUC(0-t) [1]: 3920 ng·h/mL
Cmax [1]: 1160 ng/mL
Tmax [1]: 1.25 h
half-life [1]: 3.35 h
AUC(0-t) [2]: 4710 ng·h/mL
Cmax [2]: 772 ng/mL
Tmax [2]: 2 h
half-life [2]: 4.57 h
AUC(0-t) [3]: 3270 ng·h/mL
Cmax [3]: 976 ng/mL
Tmax [3]: 0.625 h
half-life [3]: 4.41 h
AUC(0-t) [4]: 5330 ng·h/mL
Cmax [4]: 987 ng/mL
Tmax [4]: 1.25 h
half-life [4]: 7.29 h
AUC(0-t) [5]: 3960 ng·h/mL
Cmax [5]: 1160 ng/mL
AUC(0-t) [6]: 3270 ng·h/mL
Cmax [6]: 976 ng/mL
AUC(0-t) [7]: 4730 ng·h/mL
Cmax [7]: 772 ng/mL
AUC(0-t) [8]: 5330 ng·h/mL
Cmax [8]: 987 ng/mL
AUC(0-t) [9]: 3960 ng·h/mL
Cmax [9]: 1160 ng/mL
AUC(0-t) [10]: 4730 ng·h/mL
Cmax [10]: 772 ng/mL
AUC(0-t) [11]: 3270 ng·h/mL
Cmax [11]: 976 ng/mL
AUC(0-t) [12]: 5330 ng·h/mL
Cmax [12]: 987 ng/mL
AUC(0-t) [13]: 4140 ng·h/mL
Cmax [13]: 1170 ng/mL
Tmax [13]: 1.08 h
half-life [13]: 2.61 h
AUC(0-t) [14]: 2610 ng·h/mL
Cmax [14]: 703 ng/mL
Tmax [14]: 0.75 h
half-life [14]: 3.19 h
AUC(0-t) [15]: 4240 ng·h/mL
Cmax [15]: 1170 ng/mL
AUC(0-t) [16]: 2690 ng·h/mL
Cmax [16]: 751 ng/mL
AUC(0-t) [17]: 4240 ng·h/mL
Cmax [17]: 1170 ng/mL
AUC(0-t) [18]: 2690 ng·h/mL
Cmax [18]: 751 ng/mL
AUC(0-t) [19]: 5150 ng·h/mL
Cmax [19]: 1620 ng/mL
Tmax [19]: 1.25 h
half-life [19]: 2.82 h
AUC(0-t) [20]: 2900 ng·h/mL
Cmax [20]: 1400 ng/mL
Tmax [20]: 0.75 h
half-life [20]: 3.4 h
AUC(0-t) [21]: 5110 ng·h/mL
Cmax [21]: 1620 ng/mL
AUC(0-t) [22]: 2900 ng·h/mL
Cmax [22]: 1400 ng/mL
AUC(0-t) [23]: 5110 ng·h/mL
Cmax [23]: 1620 ng/mL
AUC(0-t) [24]: 2900 ng·h/mL
Cmax [24]: 1400 ng/mL
AUC(0-t) [25]: 4940 ng·h/mL
Cmax [25]: 1380 ng/mL
